Reference: patent publication US6667335B2, “Imidazole derivatives” (Hoffmann-La Roche Inc., priority 2001, dated 2003)
Where a name gives a salt, the structure may show the parent alone.

Legend:
NMDA-receptor subtype 2B = molecular target: T1, NMDA-receptor subtype 2B (Rattus norvegicus, UniProt P35439+Q00960); assay: 3H-Ro 25-6981 binding (displacement) on rat brain membranes; details: displacement of 5 nM 3H-Ro 25-6981, rat whole brain membranes (minus cerebellum and medulla oblongata), 2 hours at 4° C.
T1 construct: Membranes were prepared by homogenization of the whole brain minus cerebellum and medulla oblongata; from tissue; host or cells: rat whole brain minus cerebellum and medulla oblongata, membrane preparation
Experimental: ^3H[R-(R*,S*)]-(α-(4-Hydroxy-phenyl)-β-methyl-4-(phenyl-methyl)-1-piperidine propanol)binding
Male Füllinsdorf albino rats weighing between 150-200 g were used. Membranes were prepared by homogenization of the whole brain minus cerebellum and medulla oblongata with a Polytron (10.000 rpm, 30 seconds), in 25 volumes of a cold Tris-HCl 50 mM, EDTA 10 mM, pH 7.1 buffer. The homogenate was centrifuged at 48,000 g for 10 minutes at 4° C. The pellet was resuspended using the Polytron in the same volume of buffer and the homogenate was incubated at 37° C. for 10 minutes. After centrifugation the pellet was homogenized in the same buffer and frozen at −80° C. for at least 16 hours but not more than 10 days. For the binding assay the homogenate was thawed at 37° C., centrifuged and the pellet was washed three times as above in a Tris-HCl 5 mM, pH 7.4 cold buffer. The final pellet was resuspended in the same buffer and used at a final concentration of […]. ^3H-Ro 25-6981 binding experiments were performed using a Tris-HCl 50 mM, pH 7.4 buffer. For displacement experiments 5 nM of ^3H-Ro 25-6981 were used and non specific binding was measured using 10 mM of tetrahydroisoquinoline and usually it accounts for 10% of the total. The incubation time was 2 hours at 4° C. and the assay was stopped by filtration on Whatmann GF/B glass fiber filters (Unifilter-96, Packard, Zürich, Switzerland). The filters were washed 5 times with cold buffer. The radioactivity on the filter was counted on a Packard Top-count microplate scintillation counter after addition of […] of microscint 40 (Canberra Packard S.A., Zuirich, Switzerland).
The effects of compounds were measured using a minimum of 8 concentrations and repeated at least once.

T1 sequence (Q00960 27-1482, other chains not shown): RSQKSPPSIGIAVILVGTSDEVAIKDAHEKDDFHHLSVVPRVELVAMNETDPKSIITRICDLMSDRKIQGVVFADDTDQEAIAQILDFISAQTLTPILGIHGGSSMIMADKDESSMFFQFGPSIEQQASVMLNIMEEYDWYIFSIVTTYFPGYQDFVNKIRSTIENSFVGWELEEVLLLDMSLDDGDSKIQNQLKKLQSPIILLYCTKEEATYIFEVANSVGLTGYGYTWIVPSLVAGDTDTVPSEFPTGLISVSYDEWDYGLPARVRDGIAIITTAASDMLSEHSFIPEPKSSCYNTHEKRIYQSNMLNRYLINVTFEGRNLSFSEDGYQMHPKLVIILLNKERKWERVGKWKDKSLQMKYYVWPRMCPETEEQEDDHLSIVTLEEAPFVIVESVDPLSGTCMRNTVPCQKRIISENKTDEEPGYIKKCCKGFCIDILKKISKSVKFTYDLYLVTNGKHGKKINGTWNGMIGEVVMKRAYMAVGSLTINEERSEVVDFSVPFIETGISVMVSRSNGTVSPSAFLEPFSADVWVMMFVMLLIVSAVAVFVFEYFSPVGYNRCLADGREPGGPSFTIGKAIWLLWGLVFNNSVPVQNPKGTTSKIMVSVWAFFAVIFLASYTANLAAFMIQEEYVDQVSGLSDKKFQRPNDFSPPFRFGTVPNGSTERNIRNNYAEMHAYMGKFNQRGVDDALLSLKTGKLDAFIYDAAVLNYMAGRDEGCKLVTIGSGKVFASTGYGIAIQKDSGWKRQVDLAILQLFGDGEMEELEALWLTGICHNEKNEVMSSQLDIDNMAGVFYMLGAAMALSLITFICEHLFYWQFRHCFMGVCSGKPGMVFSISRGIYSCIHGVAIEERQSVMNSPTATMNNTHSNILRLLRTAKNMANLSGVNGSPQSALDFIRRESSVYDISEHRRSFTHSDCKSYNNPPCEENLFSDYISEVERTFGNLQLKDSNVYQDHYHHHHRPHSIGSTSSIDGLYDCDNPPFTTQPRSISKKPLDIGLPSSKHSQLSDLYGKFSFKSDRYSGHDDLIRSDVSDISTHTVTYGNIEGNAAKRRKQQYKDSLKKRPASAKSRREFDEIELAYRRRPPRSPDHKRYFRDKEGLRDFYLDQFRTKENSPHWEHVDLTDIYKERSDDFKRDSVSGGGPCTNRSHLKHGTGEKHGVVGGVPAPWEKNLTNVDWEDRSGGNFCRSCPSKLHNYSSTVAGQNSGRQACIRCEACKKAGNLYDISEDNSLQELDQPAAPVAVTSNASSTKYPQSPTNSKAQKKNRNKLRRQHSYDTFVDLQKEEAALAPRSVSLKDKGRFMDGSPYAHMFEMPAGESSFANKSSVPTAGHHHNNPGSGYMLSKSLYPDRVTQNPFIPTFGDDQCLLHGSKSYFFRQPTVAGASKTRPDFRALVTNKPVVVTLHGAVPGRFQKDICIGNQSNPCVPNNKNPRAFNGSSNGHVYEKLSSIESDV

For `CCCc1nccn1Cc1cn(-c2ccc(Cl)c(Cl)c2)cn1.Cl.Cl` [Example 1, 1H-Imidazole, 1-[[1-(3,4-Dichlorophenyl)-1H-imidazol-4-yl]methyl]-2-propyl-, Hydrochloride (1:2)], the IC50 (NMDA-receptor subtype 2B) was 7 nM and the melting point was 241 to 243 °C.
With `Cc1nccn1Cc1cn(-c2ccc(Cl)c(Cl)c2)cn1.Cl.Cl` [Example 2, 1H-Imidazole, 1-[[1-(3,4-Dichlorophenyl)-1H-imidazol-4-yl]methyl]-2-methyl-, Hydrochloride (1:2)] the IC50 (NMDA-receptor subtype 2B) was 10 nM and the melting point was > 250 °C.
With `CCc1nccn1Cc1cn(-c2ccc(Cl)c(Cl)c2)cn1.Cl.Cl` [Example 3, 1H-Imidazole, 1-[[1-(3,4-Dichlorophenyl)-1H-imidazol-4-yl]methyl]-2-ethyl-, Hydrochloride (1:2)] the IC50 (NMDA-receptor subtype 2B) was 12 nM and the melting point was > 250 °C.
In the case of `CC(C)c1nccn1Cc1cn(-c2ccc(Cl)c(Cl)c2)cn1.Cl.Cl` [Example 4, 1H-Imidazole, 1-[[1-(3,4-Dichlorophenyl)-1H-imidazol-4-yl]methyl]-2-(1-methylethyl)-, Hydrochloride (1:2)], the IC50 (NMDA-receptor subtype 2B) is reported as 17 nM and the melting point is reported as 236 to 238 °C (dec.).
With `CCc1nccn1Cc1cn(-c2ccc(Cl)c(C)c2)cn1.Cl.Cl` [Example 10, 1H-Imidazole, 1-[[1-(4-Chloro-3-methylphenyl)-1H-imidazol-4-yl]methyl]-2-ethyl-, Hydrochloride (1:2)] the IC50 (NMDA-receptor subtype 2B) was 4 nM and the melting point was 186 to 187 °C.
In the case of `Cc1cc(-n2cnc(Cn3ccnc3C)c2)ccc1Cl.Cl.Cl` [Example 11, 1H-Imidazole, 1-[[1-(4-Chloro-3-methylphenyl)-1H-imidazol-4-yl]methyl]-2-methyl-, Hydrochloride (1:2)], the IC50 (NMDA-receptor subtype 2B) is reported as 5 nM and the melting point is reported as 218 to 220 °C.
For `Cc1cc(-n2cnc(Cn3ccnc3)c2)ccc1Cl.Cl.Cl` [Example 12, 1H-Imidazole, 1-(4-Chloro-3-methylphenyl)-4-(1H-imidazol-1-yl-methyl)-, Hydrochloride (1:2)], the IC50 (NMDA-receptor subtype 2B) was 8 nM and the melting point was 206 to 207 °C.
With `Cc1cc(-n2cnc(Cn3cnc(C)c3C)c2)ccc1Cl.Cl.Cl` [Example 13, 1H-Imidazole, 1-[[1-(4-Chloro-3-methylphenyl)-1H-imidazol-4-yl]methyl]-4,5-dimethyl-, Hydrochloride (1:2)] the IC50 (NMDA-receptor subtype 2B) was 95 nM and the melting point was > 250 °C.
Work on `Cc1nccn1Cc1cn(-c2ccc3c(c2)CCC3)cn1.Cl.Cl` [Example 16, 1H-Imidazole, 1-[[1-(2,3-Dihydro-1H-inden-5-yl)-1H-imidazol-4-yl]methyl]-2-methyl-, Hydrochloride (1:2)] yielded an IC50 (NMDA-receptor subtype 2B) of 9 nM and a melting point of 242 to 243 °C.
With `CCc1nccn1Cc1cn(-c2ccc3c(c2)CCC3)cn1.Cl.Cl` [Example 17, 1H-Imidazole, 1-[[1-(2,3-Dihydro-1H-inden-5-yl)-1H-imidazol-4-yl]methyl]-2-ethyl-, Hydrochloride (1:2)] the IC50 (NMDA-receptor subtype 2B) was 12 nM and the melting point was 240 to 241 °C.
Compound `Cc1cc(-n2cnc(Cn3ccnc3C)c2)ccc1F.Cl.Cl` [Example 24, 1H-Imidazole, 1-[[1-(4-Fluoro-3-methylphenyl)-1H-imidazol-4-yl]methyl]-2-methyl-, Hydrochloride (1:2)] has an IC50 (NMDA-receptor subtype 2B) of 16 nM and a melting point of 210 to 212 °C.
With `Cc1ccc(-n2cnc(Cn3ccnc3C)c2)cc1C(F)(F)F.Cl.Cl` [Example 39, 1H-Imidazole, 2-Methyl-1-[[1-[4-methyl-3-(trifluoromethyl)phenyl]-1H-imidazol-4-yl]methyl]-, Hydrochloride (1:2)] the IC50 (NMDA-receptor subtype 2B) was 43 nM and the melting point was > 235 °C (dec.).
In the case of `Cc1nccn1Cc1cn(-c2ccc(Cl)cc2)cn1.Cl.Cl` [Example 48, 1H-Imidazole, 1-[[1-(4-Chlorophenyl)-1H-imidazol-4-yl]methyl]-2-methyl-, Hydrochloride (1:2)], the IC50 (NMDA-receptor subtype 2B) is reported as 61 nM and the melting point is reported as 243 to 244 °C.
For `Cc1nccn1Cc1cn(-c2ccc3c(c2)OCO3)cn1.Cl.Cl` [Example 52, 1H-Imidazole, 1-[[1-(1,3-Benzodioxol-5-yl)-1H-imidazol-4-yl]methyl]-2-methyl-, Hydrochloride (1:2)], the IC50 (NMDA-receptor subtype 2B) was 78 nM and the melting point was > 250 °C.
Work on `CCc1nccn1Cc1cn(-c2ccc(OC)c(Cl)c2)cn1.Cl.Cl` [Example 58, 1H-Imidazole, 1-[[1-(3-Chloro-4-methoxyphenyl)-1H-imidazol-4-yl]methyl]-2-ethyl-, Hydrochloride (1:2)] yielded an IC50 (NMDA-receptor subtype 2B) of 93 nM and a melting point of 220 to 221 °C.
In the case of `Cc1ccc(-n2cnc(Cn3ccnc3C)c2)cc1Cl.Cl.Cl` [Example 87, 1H-Imidazole, 1-[[1-(3-Chloro-4-methylphenyl)-1H-imidazol-4-yl]methyl]-2-methyl-, Hydrochloride (1:2)], the IC50 (NMDA-receptor subtype 2B) is reported as 17 nM and the melting point is reported as 242 to 243 °C.
With `Cc1ccc(-n2cnc(Cn3ccnc3)c2)cc1Cl.Cl.Cl` [Example 89, 1H-Imidazole, 1-(3-Chloro-4-methylphenyl)-4-(1H-imidazol-1-yl-methyl)-, Hydrochloride (1:2)] the IC50 (NMDA-receptor subtype 2B) was 48 nM and the melting point was 218 to 220 °C.
Compound `Cc1nccn1Cc1cn(-c2ccc(F)c(Cl)c2)cn1.Cl.Cl` [Example 93, 1H-Imidazole, 1-[[1-(3-Chloro-4-fluorophenyl)-1H-imidazol-4-yl]methyl]-2-methyl-, Hydrochloride (1:2)] has an IC50 (NMDA-receptor subtype 2B) of 20 nM and a melting point of 224 to 225 °C.
In the case of `CCc1nccn1Cc1cn(-c2ccc(F)c(Cl)c2)cn1.Cl.Cl` [Example 94, 1H-Imidazole, 1-[[1-(3-Chloro-4-fluorophenyl)-1H-imidazol-4-yl]methyl]-2-ethyl-, Hydrochloride (1:2)], the IC50 (NMDA-receptor subtype 2B) is reported as 21 nM and the melting point is reported as 248 to 250 °C.
For `Cc1nccn1Cc1ncn(-c2ccc(Cl)c(Cl)c2)c1C.Cl.Cl` [Example 103, 1H-Imidazole, 1-(3,4-Dichlorophenyl)-5-methyl-4-[(2-methyl-1H-imidazol-1-yl)methyl]-, Hydrochloride (1:2)], the IC50 (NMDA-receptor subtype 2B) was 43 nM and the melting point was > 240 °C (dec.).
For `OCc1nccn1Cc1cn(-c2ccc(Cl)c(Cl)c2)cn1` [Example 109, {1-[1-(3,4-Dichloro-phenyl)-1H-imidazol-4-yl-methyl]-1H-imidazol-2-yl}-methanol], the IC50 (NMDA-receptor subtype 2B) was 85 nM and the melting point was 202 to 203 °C.
For `CCNc1nccn1Cc1cn(-c2ccc(Cl)c(Cl)c2)cn1.Cl.Cl` [Example 111, {1-[1-(3,4-Dichloro-phenyl)-1H-imidazol-4-yl-methyl]-1H-imidazol-2-yl}-ethyl-amine Hydrochloride (1:2)], the IC50 (NMDA-receptor subtype 2B) was 11 nM and the melting point was > 250 °C.
In the case of `Cc1nccn1Cc1cn(-c2ccc3ccccc3c2)cn1` [Example 155, 1H-Imidazole, 2-Methyl-1-[[1-(naphtalen-2-yl)-1H-imidazol-4-yl]methyl]-, Hydrochloride (1:2)], the IC50 (NMDA-receptor subtype 2B) is reported as 10 nM.
For `CCc1nccn1Cc1cn(-c2ccc(F)c(C(F)F)c2)cn1` [Example 164, 1H-Imidazole, 1-[[1-(3-Difluoromethyl-4-fluorophenyl)-1H-imidazol-4-yl]methyl]-2-ethyl-, Hydrochloride (1:2)], the IC50 (NMDA-receptor subtype 2B) was 30 nM.
Compound `CSc1cccc(-n2cnc(Cn3ccnc3)c2)c1` [Example 168, 4-Imidazol-1-ylmethyl-1-(3-methylsulfanyl-phenyl)-1H-imidazole Hydrochloride (1:2)] has an IC50 (NMDA-receptor subtype 2B) of 38 nM.
Work on `Cc1nccn1Cc1cn(-c2cccc(Cl)c2)cn1` [Example 173] yielded an IC50 (NMDA-receptor subtype 2B) of 28 nM.
`CCc1nccn1Cc1cn(-c2cc(OC)cc(C(F)(F)F)c2)cn1` [Example 181] showed an IC50 (NMDA-receptor subtype 2B) of 53 nM.
With `Cc1nccn1Cc1cncc(-c2ccc(F)c(C(F)F)c2)c1` [Example 225, 3-(3-Difluoromethyl-4-fluoro-phenyl)-5-(2-methyl-imidazol-1-ylmethyl)-pyridine] the IC50 (NMDA-receptor subtype 2B) was 10 nM.
Work on `Cc1nccn1Cc1cncc(-c2cccc(C(C)(F)F)c2)c1` [Example 226, 3-[3-(1,1-Difluoro-ethyl)-phenyl]-5-(2-methyl-imidazol-1-ylmethyl)-pyridine] yielded an IC50 (NMDA-receptor subtype 2B) of 20 nM.
With `Cc1nccn1Cc1cncc(-c2cc(F)cc(C(F)(F)F)c2)c1` [Example 227, 3-(3-Fluoro-5-trifluoromethyl-phenyl)-5-(2-methyl-imidazol-1-ylmethyl)-pyridine] the IC50 (NMDA-receptor subtype 2B) was 30 nM.
With `Clc1ccc(-n2cnc(Cn3ccnc3C3CC3)c2)cc1Cl` [Example 229, 1H-Imidazole, 2-Cyclopropyl-1-[[1-(3,4-dichlorophenyl)-1H-imidazol-4-yl]methyl]-,] the IC50 (NMDA-receptor subtype 2B) was 12 nM.
Compound `Cc1cc(-c2cnc(Cn3ccnc3C)n2C)ccc1F` [Example 230, 5-(4-Fluoro-3-methyl-phenyl)-1-methyl-2-(2-methyl-imidazol-1-ylmethyl)-1-H-imidazole Hydrochloride (1:1)] has an IC50 (NMDA-receptor subtype 2B) of 84 nM.
With `Cc1cc(-c2cnc(Cn3ccnc3C)n2C)ccc1Cl` [Example 232, 5-(4-Chloro-3-methyl-phenyl)-1-methyl-2-(2-methyl-imidazol-1-ylmethyl)-1-H-imidazole-hydrochloride Hydrochloride (1:1)] the IC50 (NMDA-receptor subtype 2B) was 40 nM.
